Laboratory results: patent publication US6540999B1, “Immunomodulatory methods using Lewisx oligosacchardies” (President and Fellows of Harvard College, priority 1996, dated 2003)

Legend:
[1] = tested on: IgE response; set-up: species or system mice; conditions: mouse, in vivo
[2] = tested on: IgE response; set-up: species or system mice; conditions: mouse, in vivo; remark: listed apart in the source
[3] = tested on: IgE response; test: Serum IgE titers after intranasal administration, HSA as antigen; assay type: in vivo; conditions: coadministration with HSA, mice, FIG. 4A
[4] = tested on: Granuloma macrophages; assay type: cell-based, C57BL/6 mice
[5] = tested on: Human PBMCs; test: IL-10 production by human PBMCs from allergic or cancer patients (ELISA); assay type: cell-based; set-up: unit not given here; conditions: 24 hours; LPS 20 μg/ml, HSA and conjugates 100 μg/ml
Text: (§1) Human PBMCs were obtained from: 1) an individual who was allergic to pollen; 2) an individual suffering from lung carcinoma and 3) an individual suffering from colon carcinoma.

[6] = tested on: Human PBMCs; test: Proliferation of human PBMCs from allergic or cancer patients (3H-thymidine uptake); assay type: cell-based; conditions: 3H-thymidine uptake at 90 hours; LPS 20 μg/ml, HSA and conjugates 100 μg/ml
Text: as §1

[7] = tested on: naive splenocytes, T cell, B cell and non-T, non-B spleen cell populations; test: IL-10 production in vitro by spleen cell subpopulations; assay type: cell-based, CBA mice; set-up: unit not given here
Text: (§2) In this example, the types of cells responsive to the multimeric sugar conjugates, and the types of cytokines produced, either in vitro or in vivo, were investigated further. For the in vitro studies, naive splenocytes were isolated from CBA mice and fractionated into T cell, B cell and non-T, non-B spleen cell populations. B cell populations were defined by expression of the B220 surface marker (i.e., B220^+ cells). T cell populations were defined by expression of CD5 or Thy surface markers (i.e., CD5^+ or Thy+).

[8] = tested on: naive splenocytes, T cell, B cell and non-T, non-B spleen cell populations; test: IFN-γ production in vitro by spleen cell subpopulations; assay type: cell-based, CBA mice; set-up: unit not given here
Text: as §2

[9] = naive CBA splenocytes, unfractionated

`CC(=O)N[C@H]1[C@H](O[C@H]2[C@@H](O)[C@@H](CO)O[C@@H](O[C@H]3[C@H](O)[C@@H](O)C(O)O[C@@H]3CO)[C@@H]2O)O[C@H](CO)[C@@H](O[C@@H]2O[C@H](CO)[C@H](O)[C@H](O)[C@H]2O)[C@@H]1O` (mixture of isomers) [free LNT, lacto-N-neotetraose] was tested, and the “lowering of the total IgE response compared to administration of PLA2 alone” value [1] was “not”, the “inhibition of the SEA-specific IgE response (in words)” value [2] was “significantly less effective than free LNFPIII” and the “inhibition of the total IgE response to SEA (in words)” value [2] was “had a greater inhibitory effect”.

lacto-N-fucopentaose III [free LNFPIII] was tested, and the “reduction in the levels of total IgE as compared to administration of HSA alone” value [3] was “approximately 60%”, the “lowering of the total IgE response compared to administration of PLA2 alone” value [1] was “approximately 70%” and the “reduction of the PLA2-specific IgE response” value [1] was “approximately 40%”. The “inhibition of the SEA-specific IgE response (in words)” value [2] was “marked decrease in the antigen-specific IgE response” and the “inhibition of the total IgE response to SEA (in words)” value [2] was “only marginally inhibited”.

For lipopolysaccharide [LPS], the “IL-10 LEVEL 24 HR” value [4] was 7864 pg/mL, the “IL-10 LEVEL 48 HR” value [4] was 6559 pg/mL and the “IL-10 LEVEL 72 HR” value [4] was 4555 pg/mL. For the same molecule, the “IL-10, COLON CARCINOMA” value [5] was 8221, the “IL-10, LUNG CARCINOMA” value [5] was 1400 and the “IL-10, POLLEN ALLERGIC” value [5] was 906. The “CPM, COLON CARCINOMA” value [6] was 222 CPM, the “CPM, LUNG CARCINOMA” value [6] was 232 CPM and the “CPM, POLLEN ALLERGIC” value [6] was 1946 CPM. For the same molecule, the “IL-10, B cells (B220+)” value ([7]; B220+ cells) was 552, the “IL-10, Non-B (B220−)” value ([7]; B220− cells) was 320 and the “IL-10, T cells (CD5+)” value ([7]; CD5+ cells) was 264. The “IL-10, Non-T (CD5−)” value ([7]; CD5− cells) was 430, the “IL-10, T cells (Thy+)” value ([7]; Thy+ cells) was 72 and the “IL-10, Non-T (Thy−)” value ([7]; Thy− cells) was 430. For the same molecule, the “IL-10, Total Spleen” value [7, 9] was 535, the “IFN-γ, B cells (B220+)” value ([8]; B220+ cells) was 0 and the “IFN-γ, Non-B (B220−)” value ([8]; B220− cells) was 321. For the same molecule, the “IFN-γ, T cells (CD5+)” value ([8]; CD5+ cells) was 403, the “IFN-γ, Non-T (CD5−)” value ([8]; CD5− cells) was 0 and the “IFN-γ, T cells (Thy+)” value ([8]; Thy+ cells) was 617. For the same molecule, the “IFN-γ, Non-T (Thy−)” value ([8]; Thy− cells) was 0 and the “IFN-γ, Total Spleen” value [8, 9] was 47.

With phospholipase A2 [PLA2] the “PLA2-specific IgE response elicited (in words)” value [1] was “elicits a strong PLA2-specific IgE response” and the “total IgE response elicited (in words)” value [1] was “elicits a strong total IgE response”.
